According to article PMC13051451, “A Charge-Reversal Point Mutation Completely Depletes Flavin Chromophore from European Robin Cryptochrome 4a Protein” (The Journal of Physical Chemistry Letters, 2026):

Tests used:
[1] = target: T1, European robin Cryptochrome 4a (ErCry4a) (Erithacus rubecula, UniProt A0A2I4SZI9, R356E); assay: native electrospray mass spectrometry; UV-vis absorption; format: binding; details: co-purified FAD, noncovalent; 20 uM protein, 150 mM ammonium acetate, pH 8; no bound FAD detected (non-binder)
T1 construct: anion exchange purified; monomer with minor dimer

[2] = target: T2, European robin Cryptochrome 4a (ErCry4a) (Erithacus rubecula, UniProt A0A2I4SZI9); assay: as above; format: binding; details: co-purified FAD, noncovalent; 20 uM protein, 150 mM ammonium acetate, pH 8
T2 construct: anion exchange purified; monomer with minor dimer
T2 sequence (A0A2I4SZI9 entry or part of it): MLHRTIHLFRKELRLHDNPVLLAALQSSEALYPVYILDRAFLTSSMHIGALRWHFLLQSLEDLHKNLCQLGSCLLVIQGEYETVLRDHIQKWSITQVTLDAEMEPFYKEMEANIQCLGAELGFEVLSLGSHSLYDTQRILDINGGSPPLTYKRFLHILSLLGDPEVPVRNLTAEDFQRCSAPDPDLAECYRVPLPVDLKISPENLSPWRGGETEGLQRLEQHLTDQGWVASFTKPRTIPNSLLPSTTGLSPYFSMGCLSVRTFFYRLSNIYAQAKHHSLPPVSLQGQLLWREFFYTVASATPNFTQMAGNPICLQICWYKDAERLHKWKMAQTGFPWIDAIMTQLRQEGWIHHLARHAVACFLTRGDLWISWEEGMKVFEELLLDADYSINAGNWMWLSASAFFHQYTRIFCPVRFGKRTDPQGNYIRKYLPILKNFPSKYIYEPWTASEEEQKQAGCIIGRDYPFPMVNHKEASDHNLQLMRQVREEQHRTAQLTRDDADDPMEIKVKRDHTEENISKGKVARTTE

T1 sequence (A0A2I4SZI9 entry or part of it R356E): as the sequence (A0A2I4SZI9 entry or part of it) above, with R356E counted along it

With Cc1cc2nc3c(=O)[nH]c(=O)nc-3n(C[C@H](O)[C@H](O)[C@H](O)COP(=O)(O)OP(=O)(O)OC[C@H]3O[C@@H](n4cnc5c(N)ncnc54)[C@H](O)[C@@H]3O)c2cc1C [flavin adenine dinucleotide] as the molecule, how does the “native electrospray mass spectrometry; UV-vis absorption” value [1] read?
The value was “The R356E mutant is detected exclusively without FAD”.

What about the “% of protein with FAD bound” value [2] of the same molecule?
The value was 94%.
